Reference: patent US20050181376A1, “Antisense modulation of microsomal triglyceride transfer protein expression” (ISIS Pharmaceuticals, Inc., priority 2001, published 2005)
Like-named read-outs stand apart in the source and are kept apart here. Strand notation (5' to 3'): a small letter for the sugar, then the base; units joined by * are phosphorothioate-linked, units joined directly phosphodiester-linked; [ ] holds rarer units or linkages, { } end groups; capitals alone tell only the bases. e = 2'-O-(2-methoxyethyl) (MOE); [5mC] = 5-methylcytosine; d = 2'-deoxy (DNA)

Columns and labels:
[1] = tested on: human microsomal triglyceride transfer protein mRNA; assay: Antisense inhibition of human microsomal triglyceride transfer protein mRNA levels, quantitative real-time PCR; settings: averages from two experiments; note: test concentration or dose not given here
[2] = tested on: human microsomal triglyceride transfer protein mRNA; note: test concentration or dose not given here

## 144417 (eG*e[5mC]*eT*eG*e[5mC]*dA*dG*d[5mC]*d[5mC]*dT*dG*d[5mC]*dT*dT*dT*e[5mC]*e[5mC]*eA*eG*eA; antisense) [compound 144417]
[1]
  % INHIB (inhibition of human microsomal triglyceride transfer protein mRNA levels): 9%

## 144438 (eG*e[5mC]*eT*eT*e[5mC]*dA*dT*d[5mC]*d[5mC]*dT*dT*dG*dT*d[5mC]*d[5mC]*eA*eT*e[5mC]*eT*eG; antisense) [compound 144438]
[1]
  % INHIB (inhibition of human microsomal triglyceride transfer protein mRNA levels): 53%

## GATGATTCAAAATGACGCTG (chemistry not given here) [ISIS 144444]
[2]
  % INHIB (inhibition of human microsomal triglyceride transfer protein mRNA levels): at least 30%

## 144447 (eG*eA*eG*e[5mC]*eT*dT*d[5mC]*dA*dT*dA*dT*dA*d[5mC]*dA*dT*eT*eG*eA*eT*e[5mC]; antisense) [compound 144447]
[1]
  % INHIB (inhibition of human microsomal triglyceride transfer protein mRNA levels): 70%

## 144422 (e[5mC]*e[5mC]*eT*eG*eG*dA*dG*dG*dA*dT*dA*dA*dT*dG*d[5mC]*eT*eG*e[5mC]*eT*eG; antisense) [compound 144422]
[1]
  % INHIB (inhibition of human microsomal triglyceride transfer protein mRNA levels): 37%

## CAGTGCCCAGCTAGGAGTCA (antisense e[5mC]*eA*eG*eT*eG*d[5mC]*d[5mC]*d[5mC]*dA*dG*d[5mC]*dT*dA*dG*dG*eA*eG*eT*e[5mC]*eA) [ISIS 144407]
[1]
  % INHIB (inhibition of human microsomal triglyceride transfer protein mRNA levels): at least 30%

## 144439 (e[5mC]*eG*e[5mC]*eT*eG*dG*dA*dA*dG*dT*dA*d[5mC]*dT*dA*dT*e[5mC]*e[5mC]*eG*eG*e[5mC]; antisense) [compound 144439]
[1]
  % INHIB (inhibition of human microsomal triglyceride transfer protein mRNA levels): 52%

## 144441 (e[5mC]*eA*eT*eG*e[5mC]*d[5mC]*dA*d[5mC]*dA*dT*dT*dG*dT*dG*dT*e[5mC]*e[5mC]*e[5mC]*eT*eT; antisense) [compound 144441]
[1]
  % INHIB (inhibition of human microsomal triglyceride transfer protein mRNA levels): 60%

## CATGCCACATTGTGTCCCTT (antisense e[5mC]*eA*eT*eG*e[5mC]*d[5mC]*dA*d[5mC]*dA*dT*dT*dG*dT*dG*dT*e[5mC]*e[5mC]*e[5mC]*eT*eT) [ISIS 144441]
[1]
  % INHIB (inhibition of human microsomal triglyceride transfer protein mRNA levels): at least 30%

## GTAGCATACTGCATATACCC (antisense eG*eT*eA*eG*e[5mC]*dA*dT*dA*d[5mC]*dT*dG*d[5mC]*dA*dT*dA*eT*eA*e[5mC]*e[5mC]*e[5mC]) [ISIS 144443]
[1]
  % INHIB (inhibition of human microsomal triglyceride transfer protein mRNA levels): at least 30%

## TCAACTGCATCCAGTGCCCA (antisense eT*e[5mC]*eA*eA*e[5mC]*dT*dG*d[5mC]*dA*dT*d[5mC]*d[5mC]*dA*dG*dT*eG*e[5mC]*e[5mC]*e[5mC]*eA) [ISIS 144408]
[1]
  % INHIB (inhibition of human microsomal triglyceride transfer protein mRNA levels): at least 30%

## GTACTGGTTTCCAGGCCAGC (antisense eG*eT*eA*e[5mC]*eT*dG*dG*dT*dT*dT*d[5mC]*d[5mC]*dA*dG*dG*e[5mC]*e[5mC]*eA*eG*e[5mC]) [ISIS 144437]
[1]
  % INHIB (inhibition of human microsomal triglyceride transfer protein mRNA levels): at least 30%

## 144419 (eT*eG*eG*eT*eG*dG*dA*d[5mC]*d[5mC]*dG*d[5mC]*d[5mC]*dA*dG*dA*eG*e[5mC]*eT*e[5mC]*e[5mC]; antisense) [compound 144419]
[1]
  % INHIB (inhibition of human microsomal triglyceride transfer protein mRNA levels): 0%

## 144446 (eG*eA*eG*eA*eA*dT*dA*dA*d[5mC]*dT*dA*dT*dT*d[5mC]*dT*eG*eA*e[5mC]*eT*eG; antisense) [compound 144446]
[1]
  % INHIB (inhibition of human microsomal triglyceride transfer protein mRNA levels): 28%
